Measured values from US20150225404A1, “PYRIDINE DERIVATIVE AND MEDICINE” (NIPPON SHINYAKU CO., LTD., priority 2012, published 2015).
pIC50: −log10 of the molar value. Where a name gives a salt, the structure may show the parent alone.

Biological target: T1, human mGluR5 (Homo sapiens, UniProt P41594)
T1 construct: expressed in transfected cells
Assay: Experiment for receptor function of mGluR5 (Ca2+-dependent fluorescence, FLIPR, CHO-K1 cells stably expressing human mGluR5)
Type: cell-based
Settings: L-glutamic acid 10 μM, Fluo-4 fluorescence
Procedure: Stable expression cells in which the human mGluR5 gene had been introduced into a Chinese hamster ovary cell (CHO-K1) were used for evaluation. The cells were suspended in a growth medium (MEM-α (D8042, available from Sigma) containing 10% inactivated FBS (Cat. No. 171012, available from CCB) and 2 mM glutamax (Cat. No. 35050, available from GIBCO)) and seeded on a black clear-bottom 96-well plate at 100,000 cells per well. One day after seeding, the medium was replaced by a medium (Hanks' balanced salt solution (HBSS buffer solution) (20 mM HEPES, 2.5 mM probencide (165-15472, available from Wako Pure Chemical Industries, Ltd.), and 10×HBSS (14065-056, available from Gibco) diluted 10 times, pH 7.4)) containing a calcium-sensitive dye Fluo-4 AM at a final concentration of […] (F312, available from Dojindo Laboratories) and Pluronic F-127 at a final concentration of 0.0145% (P-2443, available from Sigma), followed by incubation at 37° C. for one hour, thereby loading Fluo-4 AM into the cells.
Subsequently, the cells were washed twice with an HBSS buffer solution, to which was subsequently added the same buffer solution. Twenty minutes thereafter, the plate was transferred into a fluorescence screening system (FLIPR TETRA, available from Molecular Devices, LLC) and measured for a Ca^2+-dependent fluorescence change in the cells.
First of all, a fluorescence baseline was measured, and thereafter, fluorescence measurement was performed for 2 minutes while adding a test substance, an excessive amount of 6-methyl-2-(phenylethynyl)pyridine (hereinafter referred to as “MPEP”) (final concentration: 10 μM), or the medium. Thereafter, fluorescence measurement was carried out for one minute while adding L-glutamic acid (final concentration: 10 μM).
While taking a fluorescence intensity caused by L-glutamic acid as 100% and a fluorescence intensity caused by L-glutamic acid in the presence of MPEP as 0%, respectively, function inhibitory activity against human mGluR5 was evaluated from the fluorescence intensity caused by L-glutamic acid in the presence of the test substance at each concentration, and an IC50 value was estimated according to a logistic equation (SAS System).

T1 sequence (P41594 21-1212): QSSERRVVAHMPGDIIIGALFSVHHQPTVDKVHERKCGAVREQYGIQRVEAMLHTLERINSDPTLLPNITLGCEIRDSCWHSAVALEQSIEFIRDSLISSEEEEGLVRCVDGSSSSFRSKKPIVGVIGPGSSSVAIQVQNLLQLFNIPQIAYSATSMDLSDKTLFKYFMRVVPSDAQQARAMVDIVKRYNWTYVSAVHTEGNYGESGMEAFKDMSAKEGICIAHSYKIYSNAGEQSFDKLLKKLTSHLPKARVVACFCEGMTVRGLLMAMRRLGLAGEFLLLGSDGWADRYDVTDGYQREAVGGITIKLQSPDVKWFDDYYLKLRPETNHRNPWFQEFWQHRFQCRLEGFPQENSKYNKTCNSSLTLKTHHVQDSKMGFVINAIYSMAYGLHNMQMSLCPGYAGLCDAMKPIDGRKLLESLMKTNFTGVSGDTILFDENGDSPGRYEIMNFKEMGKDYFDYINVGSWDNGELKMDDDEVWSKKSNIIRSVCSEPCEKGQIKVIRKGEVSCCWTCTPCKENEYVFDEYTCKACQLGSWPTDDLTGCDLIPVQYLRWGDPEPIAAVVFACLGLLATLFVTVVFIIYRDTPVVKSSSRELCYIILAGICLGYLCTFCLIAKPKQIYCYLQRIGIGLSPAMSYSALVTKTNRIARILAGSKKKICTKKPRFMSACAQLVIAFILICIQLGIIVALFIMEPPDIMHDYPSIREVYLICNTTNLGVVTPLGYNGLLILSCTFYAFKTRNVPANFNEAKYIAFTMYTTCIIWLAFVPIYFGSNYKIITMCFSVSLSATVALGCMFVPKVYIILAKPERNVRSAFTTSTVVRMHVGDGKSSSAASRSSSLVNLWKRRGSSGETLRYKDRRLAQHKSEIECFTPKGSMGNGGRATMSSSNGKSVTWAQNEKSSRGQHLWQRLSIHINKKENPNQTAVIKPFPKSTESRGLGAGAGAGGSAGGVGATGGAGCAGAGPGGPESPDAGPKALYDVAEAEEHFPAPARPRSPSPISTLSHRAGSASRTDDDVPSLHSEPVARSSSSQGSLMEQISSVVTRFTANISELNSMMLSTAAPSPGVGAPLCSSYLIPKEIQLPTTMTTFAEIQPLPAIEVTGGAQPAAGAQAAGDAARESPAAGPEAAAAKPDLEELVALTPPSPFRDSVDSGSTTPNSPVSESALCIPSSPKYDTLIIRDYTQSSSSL

pIC50 | SMILES
6.46 | CC(C)(O)c1cncc(-c2cc(OCc3ccccn3)nc3c2CCC3)n1 [Example 55, 2-{6-[2-(Pyridin-2-ylmethoxy)-6,7-dihydro-5H-cyclopenta[b]pyridin-4-yl]pyrazin-2-yl}propan-2-ol]
6.31 | N#Cc1cccc(COc2cc(-c3cncc(CO)n3)c3c(n2)CCC3)n1 [Example 56, 6-[({4-[6-(Hydroxymethyl)pyrazin-2-yl]-6,7-dihydro-5H-cyclopenta[b]pyridin-2-yl}oxy)methyl]pyridine-2-carbonitrile]
7.25 | Fc1cccc(-c2cc(OCc3ccccn3)nc3c2CCC3)c1 [Example 58, 4-(3-Fluorophenyl)-2-(pyridin-2-ylmethoxy)-6,7-dihydro-5H-cyclopenta[b]pyridine]
7.22 | O=[N+]([O-])c1cccc(-c2cc(OCc3ccccn3)nc3c2CCC3)c1 [Example 63, 4-(3-Nitrophenyl)-2-(pyridin-2-ylmethoxy)-6,7-dihydro-5H-cyclopenta[b]pyridine]
6.53 | Cc1ccc(-c2cc(OCc3ccccn3)nc3c2CCC3)cc1F [Example 64, 4-(3-Fluoro-4-methylphenyl)-2-(pyridin-2-ylmethoxy)-6,7-dihydro-5H-cyclopenta[b]pyridine]
6.97 | N#Cc1ccc(-c2cc(OCc3ccccn3)nc3c2CCC3)cc1F [Example 66, 2-Fluoro-4-[2-(pyridin-2-ylmethoxy)-6,7-dihydro-5H-cyclopenta[b]pyridin-4-yl]benzonitrile]
7.04 | Oc1cc(F)cc(-c2cc(OCc3ccccn3)nc3c2CCC3)c1 [Example 68, 3-Fluoro-5-[2-(pyridin-2-ylmethoxy)-6,7-dihydro-5H-cyclopenta[b]pyridin-4-yl]phenol]
7.03 | CS(=O)(=O)Oc1cc(F)cc(-c2cc(OCc3ccccn3)nc3c2CCC3)c1 [Example 69, 3-Fluoro-5-[2-(pyridin-2-ylmethoxy)-6,7-dihydro-5H-cyclopenta[b]pyridin-4-yl]phenyl methanesulfonate]
7.79 | Fc1cc(-c2cc(OCc3ccccn3)nc3c2CCC3)ccn1 [Example 73, 4-(2-Fluoropyridin-4-yl)-2-(pyridin-2-ylmethoxy)-6,7-dihydro-5H-cyclopenta[b]pyridine]
7.79 | Cc1cccc(COc2cc(-c3cccnc3)c3c(n2)CCCC3)n1 [Example 83, 2-[(6-Methylpyridin-2-yl)methoxy]-4-(pyridin-3-yl)-5,6,7,8-tetrahydroquinoline]
6.95 | Cc1ccc(COc2cc(-c3cccnc3)c3c(n2)CCCC3)nc1 [Example 84, 2-[(5-Methylpyridin-2-yl)methoxy]-4-(pyridin-3-yl)-5,6,7,8-tetrahydroquinoline]
6.75 | Cc1ccnc(COc2cc(-c3cccnc3)c3c(n2)CCCC3)c1 [Example 85, 2-[(4-Methylpyridin-2-yl)methoxy]-4-(pyridin-3-yl)-5,6,7,8-tetrahydroquinoline]
7.82 | Fc1cccc(COc2cc(-c3cccnc3)c3c(n2)CCCC3)n1 [Example 86, 2-[(6-Fluoropyridin-2-yl)methoxy]-4-(pyridin-3-yl)-5,6,7,8-tetrahydroquinoline]
7.38 | COCc1cccc(COc2cc(-c3cccnc3)c3c(n2)CCCC3)n1 [Example 89, 2-{[6-(Methoxymethyl)pyridin-2-yl]methoxy}-4-(pyridin-3-yl)-5,6,7,8-tetrahydroquinoline]
7.77 | c1cncc(-c2cc(OCc3ncco3)nc3c2CCCC3)c1 [Example 91, 2-(1,3-Oxazol-2-ylmethoxy)-4-(pyridin-3-yl)-5,6,7,8-tetrahydroquinoline]
7.40 | Cc1coc(COc2cc(-c3cccnc3)c3c(n2)CCCC3)n1 [Example 92, 2-[(4-Methyl-1,3-oxazol-2-yl)methoxy]-4-(pyridin-3-yl)-5,6,7,8-tetrahydroquinoline]

The remaining lines, values behind:

SMILES | pIC50
c1ccc(COc2cc(-c3cccnc3)c3c(n2)CCC3)nc1 [Example 1, 4-(Pyridin-3-yl)-2-(pyridin-2-ylmethoxy)-6,7-dihydro-5H-cyclopenta[b]pyridine dihydrochloride] | 6.84
N#Cc1ccc(-c2cc(OCc3ccccn3)nc3c2CCC3)cn1 [Example 4, 5-[2-(Pyridin-2-ylmethoxy)-6,7-dihydro-5H-cyclopenta[b]pyridin-4-yl]pyridine-2-carbonitrile hydrochloride] | 6.83
Fc1ccc(COc2cc(-c3cncnc3)c3c(n2)CCC3)c(F)c1 [Example 18, 2-[(2,4-Difluorobenzyl)oxy]-4-(pyrimidin-5-yl)-6,7-dihydro-5H-cyclopenta[b]pyridine] | 6.98
Fc1cccc(COc2cc(-c3cncnc3)c3c(n2)CCC3)n1 [Example 24, 2-[(6-Fluoropyridin-2-yl)methoxy]-4-(pyrimidin-5-yl)-6,7-dihydro-5H-cyclopenta[b]pyridine] | 7.44
Fc1ccc(COc2cc(-c3cncnc3)c3c(n2)CCC3)nc1 [Example 25, 2-[(5-Fluoropyridin-2-yl)methoxy]-4-(pyrimidin-5-yl)-6,7-dihydro-5H-cyclopenta[b]pyridine] | 7.22
Cc1cccc(COc2cc(-c3cncnc3)c3c(n2)CCC3)n1 [Example 28, 2-[(6-Methylpyridin-2-yl)methoxy]-4-(pyrimidin-5-yl)-6,7-dihydro-5H-cyclopenta[b]pyridine] | 6.98
Fc1cnccc1COc1cc(-c2cncnc2)c2c(n1)CCC2 [Example 32, 2-[(3-Fluoropyridin-4-yl)methoxy]-4-(pyrimidin-5-yl)-6,7-dihydro-5H-cyclopenta[b]pyridine] | 7.51
c1csc(COc2cc(-c3cncnc3)c3c(n2)CCC3)c1 [Example 34, 4-(Pyrimidin-5-yl)-2-(thiophen-2-ylmethoxy)-6,7-dihydro-5H-cyclopenta[b]pyridine] | 7.82
Clc1ccc(COc2cc(-c3cncnc3)c3c(n2)CCC3)s1 [Example 35, 2-[(5-Chlorothiophen-2-yl)methoxy]-4-(pyrimidin-5-yl)-6,7-dihydro-5H-cyclopenta[b]pyridine] | 7.24
N#Cc1ncc(-c2cc(OCc3ccccn3)nc3c2CCC3)cn1 [Example 37, 5-[2-(Pyridin-2-ylmethoxy)-6,7-dihydro-5H-cyclopenta[b]pyridin-4-yl]pyrimidine-2-carbonitrile hydrochloride] | 7.10
Cc1ncc(-c2cc(OCc3ccccc3)nc3c2CCC3)cn1 [Example 38, 2-(Benzyloxy)-4-(2-methylpyrimidin-5-yl)-6,7-dihydro-5H-cyclopenta[b]pyridine] | 7.35
Cc1ncc(-c2cc(OCc3cccc(F)n3)nc3c2CCC3)cn1 [Example 39, 2-[(6-Fluoropyridin-2-yl)methoxy]-4-(2-methylpyrimidin-5-yl)-6,7-dihydro-5H-cyclopenta[b]pyridine] | 6.91
Cc1ncc(-c2cc(OCc3ccc(F)cn3)nc3c2CCC3)cn1 [Example 40, 2-[(5-Fluoropyridin-2-yl)methoxy]-4-(2-methylpyrimidin-5-yl)-6,7-dihydro-5H-cyclopenta[b]pyridine hydrochloride] | 7.11
Cc1ncc(-c2cc(OCc3ncccc3F)nc3c2CCC3)cn1 [Example 41, 2-[(3-Fluoropyridin-2-yl)methoxy]-4-(2-methylpyrimidin-5-yl)-6,7-dihydro-5H-cyclopenta[b]pyridine] | 7.52
N#Cc1ncc(-c2cc(OCc3ncc(F)cc3F)nc3c2CCC3)cn1 [Example 44, 5-{2-[(3,5-Difluoropyridin-2-yl)methoxy]-6,7-dihydro-5H-cyclopenta[b]pyridin-4-yl}pyrimidine-2-carbonitrile] | 6.78
N#Cc1ncc(-c2cc(OCc3cccc(F)n3)nc3c2CCC3)cn1 [Example 48, 5-{2-[(6-Fluoropyridin-2-yl)methoxy]-6,7-dihydro-5H-cyclopenta[b]pyridin-4-yl}pyrimidine-2-carbonitrile] | 7.14
N#Cc1ncc(-c2cc(OCc3ccc(F)cn3)nc3c2CCC3)cn1 [Example 49, 5-{2-[(5-Fluoropyridin-2-yl)methoxy]-6,7-dihydro-5H-cyclopenta[b]pyridin-4-yl}pyrimidine-2-carbonitrile] | 7.26
N#Cc1ncc(-c2cc(OCc3ncccc3F)nc3c2CCC3)cn1 [Example 50, 5-{2-[(3-Fluoropyridin-2-yl)methoxy]-6,7-dihydro-5H-cyclopenta[b]pyridin-4-yl}pyrimidine-2-carbonitrile] | 6.75
c1ccc(COc2cc(-c3cnccn3)c3c(n2)CCC3)nc1 [Example 53, 4-(Pyrazin-2-yl)-2-(pyridin-2-ylmethoxy)-6,7-dihydro-5H-cyclopenta[b]pyridine hydrochloride] | 7.94
N#Cc1cncc(-c2cc(OCc3ccccn3)nc3c2CCC3)n1 [Example 54, 6-[2-(Pyridin-2-ylmethoxy)-6,7-dihydro-5H-cyclopenta[b]pyridin-4-yl]pyrazine-2-carbonitrile hydrochloride] | 7.70
